For orientation: MIC means the least concentration at which growth counts as inhibited.

Values after ≈ are worked out from the molar mass of the structure shown. A value given as a limit tells only on which side of the number the result lay.

For 4 compounds, MIC results are on record in DBAASP.

Among the test systems are Aeromonas sobria; Enterococcus faecium; Klebsiella pneumoniae; Vibrio vulnificus; Acinetobacter baumannii; Candida albicans 1; Vibrio alginolyticus; Candida glabrata; Vibrio parahaemolyticus; Vibrio splendidus; Aeromonas hydrophila; Vibrio harveyi; Aeromonas salmonicida; Syspastospora parasitica; Escherichia coli BL21.
What all share (assay): ≥ marks a high value that may be exact or a test limit, other limits are often not marked, values filed in µg/mL are converted to µM
Assay [1] deals with Escherichia coli CMCC 44102.
Assay [2] relates to Bacillus subtilis CMCC 63501.
Assay [3] relates to Clostridium perfringens ATCC 13124.
The subject of assay [4] is Staphylococcus epidermidis.
The test system of assay [5] is Bacillus cereus CMCC 63301.
In assay [6] the test system is Candida albicans CMCC 98001.
For assay [7], the system named is Pseudomonas aeruginosa CMCC 10104.
Assay [8] has as its system Escherichia coli ATCC 25922.
For assay [9], the system named is Staphylococcus aureus CMCC 26003.
Assay [10] deals with Shigella flexneri ATCC 12022.
The test system of assay [11] is Enterococcus faecalis ATCC 29212.
In assay [12] the test system is Pseudomonas aeruginosa ATCC 9027.
Assay [13] relates to Staphylococcus epidermidis ATCC 35984.
The test system of assay [14] is Edwardsiella tarda ATCC 15947.
The test system of assay [15] is Vibrio parahaemolyticus ATCC 17802.
Assay [16] relates to Staphylococcus aureus ATCC 33592.
For assay [17], the system named is Escherichia coli ATCC 8739.
The test system of assay [18] is Pseudomonas aeruginosa PAO1.
In assay [19] the test system is Streptococcus pyogenes M1T1 5448.
For assay [20], the system named is Pseudomonas aeruginosa PA14.
Assay [21] relates to Acinetobacter baumannii ATCC 7978.
The subject of assay [22] is Staphylococcus aureus ATCC 29231.
For assay [23], the system named is Enterococcus faecium E007.

With `CC[C@H](C)[C@H](NC(=O)[C@H](CC(N)=O)NC(=O)[C@H](CS)NC(=O)CNC(=O)[C@@H](N)CCC(=O)O)C(=O)N[C@@H](CC(C)C)C(=O)N[C@@H](CS)C(=O)N[C@@H](CC(C)C)C(=O)N[C@@H](CC(C)C)C(=O)N[C@@H](CCCCN)C(=O)N[C@@H](CCCN=C(N)N)C(=O)N[C@@H](CCCCN)C(=O)N[C@H](C(=O)N[C@@H](CCCCN)C(=O)N[C@@H](C)C(=O)N[C@H](C(=O)N[C@@H](CCCCN)C(=O)N[C@@H](CC(N)=O)C(=O)N[C@H](C(=O)N[C@H](C(=O)N[C@@H](CCCCN)C(=O)N[C@@H](CC(N)=O)C(=O)N[C@H](C(=O)N[C@H](C(=O)N[C@@H](CCCCN)C(=O)N[C@@H](CO)C(=O)N[C@H](C(=O)N[C@H](C(=O)NCC(=O)O)C(C)C)C(C)C)C(C)C)C(C)C)C(C)C)C(C)C)C(C)C)C(C)C` [EGCNILCLLKRKVKAVKNVVKNVVKSVVG], the MIC in the assay on Aeromonas sobria was 31.9 µM (≈ 100 µg/mL); in [1] it was 5.97 µM (≈ 18.8 µg/mL); in [2], 11.9 µM (≈ 37.5 µg/mL); against Enterococcus faecium, 31.9 µM (≈ 100 µg/mL); against Klebsiella pneumoniae it was above 31.9 µM; with Vibrio vulnificus, 31.9 µM (≈ 100 µg/mL). In addition, the minimum inhibitory concentration (MIC) in [3] turned out to be 11.9 µM (≈ 37.5 µg/mL); in [4], 31.9 µM (≈ 100 µg/mL); in assay [5], 31.9 µM (≈ 100 µg/mL); against Acinetobacter baumannii, 31.9 µM (≈ 100 µg/mL); in assay [6] it was 31.9 µM (≈ 100 µg/mL); in assay [7] it was 31.9 µM (≈ 100 µg/mL). Besides, the MIC came out at 2.99 µM (≈ 9.38 µg/mL) in assay [8]; 31.9 µM (≈ 100 µg/mL) in the assay with Candida albicans 1; 31.9 µM (≈ 100 µg/mL) against Vibrio alginolyticus; 31.9 µM (≈ 100 µg/mL) against Candida glabrata; 2.99 µM (≈ 9.38 µg/mL) in the assay on Vibrio parahaemolyticus; 23.9 µM (≈ 75 µg/mL) in the assay with Vibrio splendidus. Besides, the MIC in assay [9] is 2.99 µM (≈ 9.38 µg/mL); in the assay on Aeromonas hydrophila it was 11.9 µM (≈ 37.5 µg/mL); in assay [10], 5.97 µM (≈ 18.8 µg/mL); in assay [11] it was above 31.9 µM; against Vibrio harveyi it was 23.9 µM (≈ 75 µg/mL).
Regarding `NC(=O)[C@H](Cc1ccc(O)cc1)NC(=O)[C@H](Cc1c[nH]c2ccccc12)NC(=O)[C@H](CCCN=C(N)N)NC(=O)[C@H](CCCN=C(N)N)NC(=O)[C@H](Cc1ccc(O)cc1)NC(=O)[C@H](Cc1c[nH]c2ccccc12)NC(=O)[C@H](CCCN=C(N)N)NC(=O)[C@H](CCCN=C(N)N)NC(=O)[C@H](Cc1ccc(O)cc1)NC(=O)[C@H](Cc1c[nH]c2ccccc12)NC(=O)[C@H](CCCN=C(N)N)NC(=O)[C@@H](N)CCCN=C(N)N` [RRWYRRWYRRWY], the MIC in assay [12] was 0.49 µM (≈ 0.981 µg/mL); against Aeromonas salmonicida, at least 500 µM; against Syspastospora parasitica, 7.81 µM (≈ 15.6 µg/mL); in assay [13], 15.6 µM (≈ 31.3 µg/mL); in [14] it was at least 62.5 µM; in assay [15] it was at least 125 µM. The values for the MIC (in [16]; in assay [17]; against Aeromonas hydrophila) were 31.2 µM (≈ 62.6 µg/mL), 7.81 µM (≈ 15.6 µg/mL) and at least 125 µM, respectively.
Consider `CC[C@H](C)[C@H](NC(=O)[C@H](CCCN=C(N)N)NC(=O)[C@H](CC(N)=O)NC(=O)[C@@H](NC(=O)CNC(=O)[C@H](C)N)[C@@H](C)O)C(=O)N[C@@H](C)C(=O)N[C@@H](CCCCN)C(=O)N[C@@H](CCC(=O)O)C(=O)N[C@@H](CC(C)C)C(=O)N[C@@H](CCCN=C(N)N)C(=O)N[C@@H](CCCN=C(N)N)C(=O)N[C@@H](Cc1ccc(O)cc1)C(=O)N[C@H](C(=O)N[C@@H](CCCN=C(N)N)C(=O)N[C@@H](CCCCN)C(=O)N[C@H](C(=O)NCC(=O)N[C@@H](CCCN=C(N)N)C(=O)N[C@H](C(=O)N[C@@H](CCCCN)C(=O)N[C@@H](CCCN=C(N)N)C(=O)N[C@@H](CCCCN)C(=O)N[C@@H](C)C(=O)N[C@@H](Cc1c[nH]c2ccccc12)C(=O)O)[C@@H](C)CC)C(C)C)[C@@H](C)CC` [AGTNRIAKELRRYIRKVGRIKRKAW], for which the MIC with Escherichia coli BL21 was determined as 0.25 µM (≈ 0.76 µg/mL); in [18], 16 µM (≈ 48.7 µg/mL); in [19] it was 2 µM (≈ 6.08 µg/mL).
`CC[C@H](C)[C@H](NC(=O)[C@H](CCCCN)NC(=O)[C@H](Cc1c[nH]c2ccccc12)NC(=O)[C@@H](N)CC(C)C)C(=O)NCC(=O)N[C@@H](CCCCN)C(=O)N[C@@H](CCCCN)C(=O)N[C@H](C(=O)N[C@@H](Cc1c[nH]c2ccccc12)C(=O)N[C@@H](CCCN=C(N)N)C(=O)N[C@H](C(=O)N[C@@H](CC(C)C)C(=O)N[C@@H](Cc1c[nH]c2ccccc12)C(=O)N[C@@H](CC(N)=O)C(=O)N[C@@H](Cc1c[nH]c2ccccc12)C(=O)N[C@@H](CCCN=C(N)N)C(=O)O)C(C)C)[C@@H](C)CC` [LWKIGKKIWRVLWNWR]: the MIC in assay [20] is 14.7 µM (≈ 32 µg/mL); in assay [21], 7.33 µM (≈ 16 µg/mL); in [22] it was 1.83 µM (≈ 3.99 µg/mL); in assay [23], at least 58.6 µM.
